According to patent US8664271B2, “Stabilized leukotriene B4 (LTB4) agent pharmaceutical formulation” (LTB4 Sweden AB, priority 2004, dated 2014):

How the values were obtained:
[1] = Stability of aqueous LTB4 Na salt solution at pH 7.4 with or without EDTA (HPLC impurities); type: physicochemical; conditions: aqueous solution 5 mg/ml
Protocol: LTB4 (acid form) was obtained from Cascade Biochem (U.K.) in solution in ethanol/water, 95/5. The purity level of this starting material was about 98.5% (+0.3%) as assessed by reverse phase HPLC. The ethanolic LTB4 solution was neutralized with an equivalent of sodium hydroxide to obtain LTB4 sodium (Na) salt. The ethanolic solution of LTB4 Na salt was evaporated to dryness under reduced pressure using a rotoevaporator and a water bath (30° C.), until an oily residue is obtained. The residue was redisolved in Dulbeccos' phosphate buffered saline (DPBS) at pH 7.4 containing or not, 0.01% ethylenediaminetetraacetic acid (EDTA) to obtain a final concentration of 5 mg LTB4/ml. Solutions were dispensed in 2 ml type I borosilicate glass vials which were then sealed under argon using Teflon-lined rubber stoppers and aluminium caps. The samples were stored in the dark at 25±5° C. until analysis at the indicated time points. Analysis of LTB4 solutions was carried out by reverse phase HPLC using a C18, 5μ particle, 4.7X250 mm column (Nucleosil) and methanol/acetronitrile gradient elution; detection of LTB4 and impurities was performed on line using an HPLC UV spectrophotometer at 270 nm.

[2] = Forced degradation (40° C.) of aqueous LTB4 Na salt solutions at different concentrations; type: physicochemical; conditions: aqueous isotonic pH 7.5, 0.01% EDTA
Protocol: A solution of LTB4 (acid form) at the concentration of 12 mg/ml in ethanol/water, 95/5 (from Cascade Biochem, U.K.), was neutralized with an equivalent of sodium hydroxide to generate the Na salt. […] The ethanolic solution of LTB4 Na salt was evaporated (see Example 1) until an oily residue is obtained. The residue was then redissolved in a phosphate buffered sodium chloride solution (saline) (30 mM sodium phosphate, pH 7.5) containing 0.01% EDTA in order to obtain an isotonic solution of LTB4 Na salt at 25 mg/ml. LTB4 Na salt solution at 0.1 mg/ml was obtained by dilution of the 25 mg/ml solution with an isotonic 30 mM sodium phosphate buffered saline, pH 7.5 containing 0.01% EDTA. Aliquots of the solutions were dispensed in 2 ml type I glass vials as described in Example 1, and stored under air, in the dark, at 40±5° C. LTB4 and impurities were analyzed at the indicated times by reverse phase HPLC using UV detection at 270 nm.

impurity level ([1]; DPBS pH 7.4, 0.01% EDTA, 60 days of storage at 25° C.): 2.9% | impurity level ([1]; DPBS pH 7.4, 0.01% EDTA, 90 days of storage at 25° C.): 8.6% | degradation ([1]; DPBS pH 7.4, 0.01% EDTA, up to 14 days of storage at 25° C.): no increase of degradation | level of impurities ([1]; DPBS pH 7.4, no EDTA, 7 days of storage at 25° C.): increased level of impurities | impurity level ([1]; DPBS pH 7.4, no EDTA, 14 days of storage at 25° C.): 23.3 % of LTB4 peak area | stability of 25 mg/ml solution compared with 0.1 mg/ml solution [2]: much less stable
SMILES: CCCCC/C=C\C[C@@H](O)/C=C/C=C/C=C\[C@@H](O)CCCC(=O)[O-].[Na+] [LTB4 Na salt]
